The test has as its system TEAD-dependent transcription. The test can be described thus: Inhibitor activity against TEAD-dependent transcription in a cell-based reporter assay (MSTO-211H+12XGTIIC luciferase). To be noted: Homo sapiens; MSTO-211H+12XGTIIC cells, 24 hours incubation, luciferase luminescence normalized to cell viability fluorescence, geometric mean; read-out: MSTO-211H GMean IC50 (uM) Cell Assay Reporter Cell Variant: TEAD. The source says:
Determine Inhibitor Activity Against TEAD-Dependent Transcription in a Cell-Based Reporter Assay
The human mesothelioma cell line MSTO-211H was stably transfected with a pGL4.21 plasmid containing a synthetic promoter with 12 copies of the GTIIC TEAD response element that drives the expression of a luciferase reporter gene^1 using Lipofectamine transfection reagent (Thermo Fisher). Transfected cells were selected using puromycin and single cell clones expressing this construct (referred to as MSTO-211H+12XGTIIC) were generated by limiting dilution. MSTO-211H cells was characterized by genetic alterations in key components of the Hippo pathway^2, resulting in up-regulation of YAP/TEAD-mediated transcription. […] To evaluate TEAD inhibitors, the MSTO-211H+12XGTIIC cell line was seeded in a 96-well plate in 50 μL of culture media at 1×10^4 cells per well and incubated at 37° C. overnight. Serial dilutions of compounds (in total volume of 50 μL of culture media) were added to the cells and incubated at 37° C. for 24 hours. Each plate included cells treated with DMSO as high controls and cells treated with 20 μM of the reference compound K-975 (a known TEAD inhibitor)^3 as low controls. Cell viability was assayed by the addition of 25 μL of CellTiter-Fluor reagent (Promega) followed by a 30-minute incubation at 37° C. and quantification of the fluorescence signal (Ex400/Em505). Subsequently, luciferase expression was assayed by the addition of 25 μL of ONE-Glo reagent (Promega) followed by a 10-minute incubation at room temperature and quantification of the luminescence signal. The luminescence signal was normalized to the fluorescence signal to correct for any loss in cell viability over the 24-hour compound incubation period. The percentage of inhibition of normalized luminescence signal, indicative of compound-mediated inhibition of TEAD-dependent transcription, at individual compound concentrations relative to high and low controls was calculated. The data were analyzed by using nonlinear regression to generate IC50 values for individual compounds.
(In a reporter assay the amount or activity of a reporter protein is the signal.)

Where a name gives a salt, the structure may show the parent alone. Bounds are passed on as bounds.

The IC50 is the midpoint of a concentration-inhibition curve. With `C=CC(=O)N1CCc2ccc(N(C)c3ccccc3)cc2C1` [P-0026, 1-(7-(methyl(phenyl)amino)-3,4-dihydroisoquinolin-2(1H)-yl)prop-2-en-1-one], the 50% inhibitory concentration (IC50) lay within 0.001 to 0.5 µM. The result for `O=C(/C=C/Cl)N1CCc2ccc(Oc3ccc(C(F)(F)F)cc3)cc2C1` [P-0125, (E)-3-chloro-1-(7-(4-(trifluoromethyl)phenoxy)-3,4-dihydroisoquinolin-2(1H)-yl)prop-2-en-1-one] reads 0.001 to 0.5 µM; that for `C=CC(=O)N1CCc2ccc(Nc3ccc(F)cc3)cc2C1` [P-0023, 1-(7-((4-fluorophenyl)amino)-3,4-dihydroisoquinolin-2(1H)-yl)prop-2-en-1-one], 0.001 to 0.5 µM; that for `C=CC(=O)N1CCc2cc(C)c(Oc3ccccc3)cc2C1` [P-0041, 1-(6-methyl-7-phenoxy-3,4-dihydroisoquinolin-2(1H)-yl)prop-2-en-1-one], 0.001 to 0.5 µM. For the molecule `C=CC(=O)N1CCc2ccc(OC3CC(F)(F)C3)cc2C1` [P-0020, 1-(7-(3,3-difluorocyclobutoxy)-3,4-dihydroisoquinolin-2(1H)-yl)prop-2-en-1-one], the IC50 is 0.001 to 0.5 µM. The result for `C=CC(=O)N1CCc2ccc(OCc3ccccc3)cc2C1` [P-0002, 1-(7-(benzyloxy)-3,4-dihydroisoquinolin-2(1H)-yl)prop-2-en-1-one] reads 0.001 to 0.5 µM; that for `C=CC(=O)N1CCc2ccc(NC3CCC4(CC3)CC4)cc2C1` [P-0097, 1-(7-(spiro[2.5]octan-6-ylamino)-3,4-dihydroisoquinolin-2(1H)-yl)prop-2-en-1-one], 0.5 to 20 µM. For `C=CC(=O)N1CCc2ccc(OCc3ccccc3F)cc2C1` [P-0096, 1-(7-((2-fluorobenzyl)oxy)-3,4-dihydroisoquinolin-2(1H)-yl)prop-2-en-1-one] the value was over 20 µM. For `C=C(F)C(=O)N1CCc2ccc(Oc3cccc(F)c3)cc2C1` [P-0037, 2-fluoro-1-(7-(3-fluorophenoxy)-3,4-dihydroisoquinolin-2(1H)-yl)prop-2-en-1-one] the value was 0.001 to 0.5 µM; for `C=CC(=O)N1CCc2ccc(Oc3cc(F)ccc3F)cc2C1` [P-0058, 1-(7-(2,5-difluorophenoxy)-3,4-dihydroisoquinolin-2(1H)-yl)prop-2-en-1-one], 0.001 to 0.5 µM; for `C=CC(=O)N1CCc2ccc(Oc3ccccc3)cc2C1` [P-0007, 1-(7-phenoxy-3,4-dihydroisoquinolin-2(1H)-yl)prop-2-en-1-one], 0.001 to 0.5 µM. For `C=CC(=O)N1CCc2ccc(OCc3cccc(C(F)(F)F)c3)cc2C1` [P-0083, 1-(7-((3-(trifluoromethyl)benzyl)oxy)-3,4-dihydroisoquinolin-2(1H)-yl)prop-2-en-1-one], the IC50 fell in the range of 0.001 to 0.5 µM. For `C=C(F)C(=O)N1CCc2ccc(Oc3ccc(C(F)(F)F)nc3)cc2C1` [P-0051, 2-fluoro-1-(7-((6-(trifluoromethyl)pyridin-3-yl)oxy)-3,4-dihydroisoquinolin-2(1H)-yl)prop-2-en-1-one] the value was 0.001 to 0.5 µM; for `C=CC(=O)N1CCc2c(F)cc(OC3CCC(F)(F)CC3)cc2C1` [P-0095, 1-(7-((4,4-difluorocyclohexyl)oxy)-5-fluoro-3,4-dihydroisoquinolin-2(1H)-yl)prop-2-en-1-one], 0.001 to 0.5 µM.

As to `C=CC(=O)N1CCc2ccc(OC34CC5CC(CC(C5)C3)C4)cc2C1` [P-0021, 1-(7-(((3R,5R)-adamantan-1-yl)oxy)-3,4-dihydroisoquinolin-2(1H)-yl)prop-2-en-1-one], the IC50 is 0.001 to 0.5 µM. For `C=CC(=O)N1CCc2cc(F)c(OC3CCC(F)(F)CC3)cc2C1` [P-0102, 1-(7-((4,4-difluorocyclohexyl)oxy)-6-fluoro-3,4-dihydroisoquinolin-2(1H)-yl)prop-2-en-1-one] the value was 0.001 to 0.5 µM; for `C=CC(=O)N1CCc2ccc(Oc3ccc(C)nc3)cc2C1` [P-0036, 1-(7-((6-methylpyridin-3-yl)oxy)-3,4-dihydroisoquinolin-2(1H)-yl)prop-2-en-1-one], 0.001 to 0.5 µM. The result for `C=CC(=O)N1CCc2ccc(Oc3ccc(OC(F)(F)F)cc3)cc2C1` [P-0052, 1-(7-(4-(trifluoromethoxy)phenoxy)-3,4-dihydroisoquinolin-2(1H)-yl)prop-2-en-1-one] reads over 20 µM; that for `C=CC(=O)N1CCc2ccc(Oc3ccc(Cl)c(F)c3)cc2C1` [P-0073, 1-(7-(4-chloro-3-fluorophenoxy)-3,4-dihydroisoquinolin-2(1H)-yl)prop-2-en-1-one], 0.001 to 0.5 µM; that for `C=CC(=O)N1CCc2ccc(OCc3cccc(F)c3)cc2C1` [P-0091, 1-(7-((3-fluorobenzyl)oxy)-3,4-dihydroisoquinolin-2(1H)-yl)prop-2-en-1-one], 0.001 to 0.5 µM. The result for `C=CC(=O)N1CCc2ccc(Cc3ccccc3)cc2C1` [P-0033, 1-(7-benzyl-3,4-dihydroisoquinolin-2(1H)-yl)prop-2-en-1-one] reads 0.001 to 0.5 µM; that for `C=CC(=O)N1CCc2ccc(NC3CC4C(C3)C4(F)F)cc2C1` (stereo not shown) [P-0087, 1-(7-((6,6-difluorobicyclo[3.1.0]hexan-3-yl)amino)-3,4-dihydroisoquinolin-2(1H)-yl)prop-2-en-1-one], 0.001 to 0.5 µM. With `C=CC(=O)N1CCc2ccc(OC3CCC4(CC3)CC4)cc2C1` [P-0077, 1-(7-(spiro[2.5]octan-6-yloxy)-3,4-dihydroisoquinolin-2(1H)-yl)prop-2-en-1-one], the 50% inhibitory concentration (IC50) lay in the range of 0.001 to 0.5 µM.

For the molecule `C=CC(=O)N1CCc2c(F)cc(Oc3ccc(C(F)(F)F)cc3)cc2C1` [P-0113, 1-(5-fluoro-7-(4-(trifluoromethyl)phenoxy)-3,4-dihydroisoquinolin-2(1H)-yl)prop-2-en-1-one], the IC50 fell in the range of 0.001 to 0.5 µM. The result for `C=CC(=O)N1CCc2ccc(OCC34CC5CC(CC(C5)C3)C4)cc2C1` [P-0108, 1-(7-(((3r,5r,7r)-adamantan-1-yl)methoxy)-3,4-dihydroisoquinolin-2(1H)-yl)prop-2-en-1-one] reads 0.001 to 0.5 µM.

Turning to `C=CC(=O)N1CCc2ccc(Oc3ccc(C#N)cc3)cc2C1` [P-0115, 4-((2-acryloyl-1,2,3,4-tetrahydroisoquinolin-7-yl)oxy)benzonitrile], the concentration for half-maximal inhibition (IC50) was 0.001 to 0.5 µM. The result for `C=CC(=O)N1CCc2ccc(N[C@H]3CC[C@@H](C(F)(F)F)CC3)cc2C1` [P-0065, 1-(7-(((1s,4s)-4-(trifluoromethyl)cyclohexyl)ami-no)-3,4-dihydroisoquinolin-2(1H)-yl)prop-2-en-1-one formate] reads 0.001 to 0.5 µM; that for `C=CC(=O)N1CCc2ccc(Oc3cccc(C4CC4)c3)cc2C1` [P-0046, 1-(7-(3-cyclopropylphenoxy)-3,4-dihydroisoquinolin-2(1H)-yl)prop-2-en-1-one], 0.001 to 0.5 µM; that for `C=CC(=O)N1CCc2cc(F)c(Oc3ccc(C(F)(F)F)c(F)c3)cc2C1` [P-0098, 1-(6-fluoro-7-(3-fluoro-4-(trifluoromethyl)phenoxy)-3,4-dihydroisoquinolin-2(1H)-yl)prop-2-en-1-one], 0.001 to 0.5 µM. The result for `C=CC(=O)N1CCc2ccc(Oc3ccc(C(F)(F)F)cc3)cc2C1=O` [P-0128, 2-acryloyl-7-(4-(trifluoromethyl)phenoxy)-3,4-dihydroisoquinolin-1(2H)-one] reads 0.001 to 0.5 µM; that for `C=CC(=O)N1CCc2ccc(Oc3ccc(C(F)(F)F)cn3)cc2C1` [P-0053, 1-(7-((5-(trifluoromethyl)pyridin-2-yl)oxy)-3,4-dihydroisoquinolin-2(1H)-yl)prop-2-en-1-one formate], 0.001 to 0.5 µM; that for `C=CC(=O)N1CCc2ccc(Cc3ccc(C(F)(F)F)c(F)c3)cc2C1` [P-0068, 1-(7-(3-fluoro-4-(trifluoromethyl)benzyl)-3,4-dihydroisoquinolin-2(1H)-yl)prop-2-en-1-one], 0.001 to 0.5 µM. For `C=CC(=O)N1Cc2cc(OC3CCC(F)(F)CC3)ccc2C(C)C1` (stereo not shown) [P-0094, 1-(7-((4,4-difluorocyclohexyl)oxy)-4-methyl-3,4-dihydroisoquinolin-2(1H)-yl)prop-2-en-1-one] the value was 0.001 to 0.5 µM; for `C=CC(=O)N1CCc2ccc(OC3CCC(F)(F)CC3)cc2C1` [P-0062, 1-(7-((4,4-difluorocyclohexyl)oxy)-3,4-dihydroisoquinolin-2(1H)-yl)prop-2-en-1-one], 0.001 to 0.5 µM. With `C=CC(=O)N1CCc2ccc(NCc3cccc(F)c3)cc2C1` [P-0090, 1-(7-((3-fluorobenzyl)amino)-3,4-dihydroisoquinolin-2(1H)-yl)prop-2-en-1-one], the IC50 was in the range of 0.001 to 0.5 µM.

Turning to `CN(C)C/C=C/C(=O)N1CCc2ccc(Oc3ccc(C(F)(F)F)cc3)cc2C1` [P-0116, (E)-4-(dimethylamino)-1-(7-(4-(trifluoromethyl)phenoxy)-3,4-dihydroisoquinolin-2(1H)-yl)but-2-en-1-one], the IC50 was 0.5 to 20 µM. The result for `C=CC(=O)N1CCc2ccc(NCC3CCC(F)(F)CC3)cc2C1` [P-0100, 1-(7-(((4,4-difluorocyclohexyl)methyl)ami-no)-3,4-dihydroisoquinolin-2(1H)-yl)prop-2-en-1-one] reads 0.001 to 0.5 µM.

These data come from patent publication US20240174659A1, “COMPOUNDS AND METHODS FOR YAP/TEAD MODULATION AND INDICATIONS THEREFOR” (Opna Bio SA, priority 2021, published 2024).
